Where two headings read alike, the source gives them in different places. Marks after values point to notes of the source that are not given here.

The record followed here is patent US8106080B2, “Compositions and methods for enhancing nitric oxide delivery” (priority 2006, dated 2012).

The subject of series [1] is normal C57Black/6 mice.
The subject of series [2] is EDL muscles from normal C57Black/6 mice. Nature of the series: DNA synthesis ([3H]-thymidine) in whole-muscle EDL culture, normal mice. The class given is cell-based. Conditions: NO donor alone; whole mouse EDL-muscle cultures; FIG. 2. On the procedure:
The proposed model of satellite cell activation as a function of NO is supported by a study of the effect of two known NO donor compounds-ISDN and DPTA-on whole mouse EDL-muscle cultures (FIG. 2), which studies were performed using in vitro methods described below. Results are reported in dpm (“disintegrations per minute”) per amount of DNA (here μg). […] In all cases, each sample was assayed in duplicate for counts, and in triplicate for DNA content (micrograms), the latter according to a standard curve of 5 or more standard concentrations that was established with a regression line having r^2 in the linear regression analysis greater than 0.97 at each assay.
Extensor digitorum longus (EDL) muscles were dissected cleanly and carefully from normal C57Black/6 mice (8 weeks old) without stretching or trauma that could easily activate satellite cells. Each muscle was aligned radially in one well of a 6-well Flex II culture plate (Flexcell International, N.C., USA), and the tendons were pinned so the muscle was at resting length. […]
(§1) DNA was isolated from the tissues. DNA synthesis was assayed by scintillation counting in Ready Safe scintillation cocktail (Beckman), and the concentration of DNA in each sample was assayed using a fluorescence assay (calibrated against a standard curve). The data were calculated as DNA synthesis per microgram of DNA in each sample.

Series [3] has as its system mdx dystrophic mice. The experiment in a line: DNA synthesis in back muscle after topical application, mdx mice. Particulars: transdermal, FIG. 18. It counts as in vivo, mouse. From the text: Ointments were applied according to the following procedure. • 1. Animals were anesthetized with isoflurane and the mid-dorsal skin (on the back) was shaved, washed with soap and water, and air dried. • 2. The ointment was applied to the sterile pad on an adhesive bandage. Control bandages were coated with the ointment base only. After topical application in which the bandages were applied to the shaved back region, bandages were wrapped with medical adhesive. The animals had the Elizabethan collar fitted while under anesthesia, to prevent their later chewing at the adhesive tape. Eyes were irrigated regularly, as animals were unable to groom well while wearing the cone. • 3. Animals were treated for a total of 24 hours. There were no apparent effects of treatment on behaviour. • 4. Two hours before euthanasia, the mice were injected with 2 μCi per gram body weight of tritiated-thymidine (intra peritoneal) to label DNA synthesis. • 5. At 24 hours from the start of ointment application, animals were euthanized using cervical dislocation under anesthesia provided by pentobarbital injection. […] DNA synthesis was assayed by scintillation counting in Ready Safe scintillation cocktail (Beckman), and the concentration of DNA in each sample was assayed using a fluorescence assay (calibrated against a standard curve). The data were calculated as DNA synthesis per microgram of DNA in each sample. […]

The test system of series [4] is EDL muscles from old (12-month-old) normal mice. Nature of the series: DNA synthesis in whole-muscle EDL culture from 12-month-old mice. It counts as cell-based, mouse. Particulars: MyoNovin higher dose of 2, L-NAME both doses (very high), FIG. 19. As for the experimental part:
[…] Each muscle was aligned radially in one well of a 6-well Flex II culture plate (Flexcell International, N.C., USA), and the tendons were pinned so the muscle was at resting length. The muscles were incubated in growth medium ([…], DMEM, containing 15% v/v horse serum (HyClone Laboratories Inc.) and 2% v/v chick embryo extract (ICN Biomedicals) at 37° C. in 5% CO2). Muscles in the wells were treated with or without an NO donor. [^3H]-Thymidine was added to the medium at the beginning of treatment, and cultures were maintained for 24 hours to allow incorporation of the isotope into new DNA. At the end of 24 hours, muscles were removed from wells, tendons were trimmed away, and the muscles were frozen at −20° C. for future analysis.
as §1
Data from an experiment on EDL muscles in culture, isolated from old (12-month-old) normal […] mice were conducted using the method described above for methocarbomol and ISDN.
In this experiment, muscles were treated with MyoNovin (2 doses) or the NOS inhibitor, L-NAME (2 doses).

Series [5] concerns liver tissue homogenate. The experiment in a line: EPR assay of NO release, liver homogenate. Particulars: MGD spin-trap, 1 hour at 37° C., FIG. 20. The class given is biochemical, mouse. As for the experimental part:
(§2) In the experiment liver and back muscle tissue taken from C57Black/6 mice were homogenized in ice-cold sucrose buffer. A small amount of MyoNovin was dissolved in dimethylsulfoxide and added to the tissue homogenates. An NO spin-trap molecule N-Methyl-D-glucamine dithiocarbamate (MGD) was added to the homogenate-MyoNovin mixture as a stable iron complex [10 μl of 50 mM MGD in saline; (containing MGD at 50 mM and Fe^2+ at 10 mM)] in order to trap any NO released from the tissue homogenate. The entire homogenate mixture plus NO spin-trap solution was then incubated for 1 hour at 37° C. After incubation, a sample of homogenate (16 μl) was loaded into a quartz capillary tube for determination of the EPR spectrum. EPR spectra were then obtained using a Bruker EMXEPR spectrometer (Bruker, Co., Billerica, Mass.) at room temperature (25° C.). The instrument settings were: 9.25 GHz microwave frequency; 100 kHz modulation frequency; 20 mW microwave power, 4 G modulation amplitude, 40 ms time constant, 42 s scan time, and 100 Gauss scan range, and 3410 G center field.
(§3) FIG. 20 is a compilation of the spectra obtained. Curve A represents a blank control sample (the homogenate and NO spin-trap for the EPR assay, without the addition of MyoNovin). Curve B is an NO standard (homogenate and NO spin-trap for the EPR assay, bubbled with NO gas). […]

Series [6] relates to back muscle tissue homogenate. Nature of the series: EPR assay of NO release, back muscle homogenate. It counts as biochemical, mouse. As for the experimental part:
as §2, §3

Where [7] appears, read: 1% methocarbamol, 0.2% ISDN ointment, topical 24 h, FIG. 7.
The mark [8] stands for this setting: back muscle, topical ointment on back, 24 h, DNA synthesis per microgram of DNA.
Setting [9] is: gut (positive control tissue), topical ointment on back, 24 h, per microgram of DNA.
The mark [10] stands for this setting: heart (negative control tissue), topical ointment on back, 24 h, per microgram of DNA.
[11] abbreviates: quadriceps, topical ointment on back, 24 h, DNA synthesis per microgram of DNA.
The mark [12] stands for this setting: 0.25% carisoprodol, 1% DETA, topical, FIG. 8.

For the molecule `COc1ccccc1OCC(O)COC(N)=O` (stereo not shown) [MC, methocarbamol], the “DNA synthesis in back muscle (in words)” value in series [1] (setting [7]) is given as “increase in DNA synthesis”. For the same molecule, the “DNA synthesis, Back Muscle, Mean” value in series [1] (back muscle, mean of experiments, outliers (*) excluded, MC/ISDN mean covers samples (a) and (b)) is given as 427.5. In series [1] (setting [8]), the “DNA synthesis, Back Muscle, Experiment 1” value is recorded as 430.5; the “DNA synthesis, Back Muscle, Experiment 2” value was 734*; the “DNA synthesis, Back Muscle, Experiment 3” value is on record as 422.7; the “DNA synthesis, Back Muscle, Experiment 4” value is given as 429.43. In addition, in series [1] (setting [9]), the “DNA synthesis, Gut, Experiment 2” value is reported as 123; the “DNA synthesis, Gut, Experiment 3” value is 239.2; the “DNA synthesis, Gut, Experiment 4” value is reported as 225.9. Further, the “DNA synthesis, Gut, Mean” value in series [1] (gut, mean of experiments, MC/ISDN mean covers samples (a) and (b)) was found to be 196.0. In series [1] (setting [10]), the “DNA synthesis, Heart, Experiment 2” value is reported as 186; the “DNA synthesis, Heart, Experiment 3” value is 221.3; the “DNA synthesis, Heart, Experiment 4” value is 240.76. The “DNA synthesis, Heart, Mean” value in series [1] (heart, mean of experiments, MC/ISDN mean covers samples (a) and (b)) stood at 216.0. The “DNA synthesis, Quadriceps, Mean” value in series [1] (quadriceps, mean of experiments, MC/ISDN mean covers samples (a) and (b)) turned out to be 456.3. Also, in series [1] (setting [11]), the “DNA synthesis, Quadriceps, Experiment 1” value stood at 507; the “DNA synthesis, Quadriceps, Experiment 2” value turned out to be 573; the “DNA synthesis, Quadriceps, Experiment 3” value was 404.1; the “DNA synthesis, Quadriceps, Experiment 4” value amounted to 340.9.
As to `CCCC(C)(COC(N)=O)COC(=O)NC(C)C` (stereo not shown) [carisoprodol], in series [1] (setting [12]), the “DNA synthesis in back muscle (in words)” value is “induce increased DNA synthesis” and the “DNA synthesis in quadriceps (in words)” value is “induce increased DNA synthesis”.
`O=[N+]([O-])O[C@H]1CO[C@H]2[C@@H]1OC[C@H]2O[N+](=O)[O-]` [ISDN, isosorbide dinitrate]: the “DNA synthesis (3H-thymidine incorporation) compared to a control muscle” value in series [2] is “stimulate an increase in DNA synthesis”. In series [1] (setting [7]), the “DNA synthesis in back muscle (in words)” value was “increase in DNA synthesis”.
As to `NCCCN(CCCN)/[N+]([O-])=N/O` [DPTA, dipropylenetriamine-NONOate], the “DNA synthesis (3H-thymidine incorporation) compared to a control muscle” value in series [2] is reported as “stimulate an increase in DNA synthesis”.
Take `NCCN(CCN)/[N+]([O-])=N/O` [DETA, diethylenetriamine-NONOate]: in series [1] (setting [12]), the “DNA synthesis in back muscle (in words)” value is given as “induce increased DNA synthesis” and the “DNA synthesis in quadriceps (in words)” value was “induce increased DNA synthesis”.
Consider `COc1ccccc1OCC(CO[N+](=O)[O-])O[N+](=O)[O-]` (stereo not shown) [MyoNovin, 1,2-di-O-nitro-3(o-methoxyphenoxy)-propanediol], for which, in series [3], the “DNA synthesis in back muscle compared to the control” value was “decreased”. In series [4], the “DNA synthesis in EDL muscles in culture” value is listed as “increased DNA synthesis”. Besides, the “NO release (EPR)” value in series [5] is “strong release of NO”; in series [6] (back muscle homogenate, MGD spin-trap, 1 hour at 37° C., FIG. 20), “strong release of NO”. Also, in series [6] (back muscle homogenates, FIG. 21), the “time-course of NO release” value is recorded as “more than two hours”. Moreover, the “side effects to animal behaviour, appearance or weight” value in series [1] (transdermal MyoNovin, 24 h, normal mice) is on record as “no apparent side effects”. Besides, the “increase in muscle cell proliferation (DNA synthesis)” value in series [1] (transdermal, over a 24-hour period, normal mice, FIG. 17) was 37-39%.
In the case of `COC(=O)[C@@H](N)CCCNC(=N)N[N+](=O)[O-]` [L-NAME, L-nitro-arginine methyl ester], the “DNA synthesis in EDL muscles in culture” value in series [4] is “decreased DNA synthesis”.
